This assay has as its target human GPR120 (Homo sapiens (Human), UniProt Q5NUL3). In words: GPR120 pERK AlphaScreen SureFire assay (human GPR120 pERK assay). The assay is classed as cell-based. The note with it: CHOA12 or CHO-K1 cells stably transfected with short form of human GPR120, 100% = 50 μM linolenic acid. An excerpt:
GPR120 activity was monitored by measuring phosphorylation of ERK (pERK), since G protein receptors are known to activate the ERK signaling cascade either directly and/or through recruitment of arrestin that serves as a scaffold for downstream signaling events.
GPR120 pERK AlphaScreen SureFire Assay
The human and mouse GPR120-mediated intracellular phosphorylated ERK assays were established using CHOA12 cells stably transfected with the short form of human or mouse GPR120 receptor. Cells were cultured in growth medium consisting of F-12 media (Invitrogen Cat. #11765) with 5% Charcoal/Dextran FBS (Invitrogen Cat. #12676-029), 500 μg/mL GENETICIN® (Life Technologies Cat. #10131-027) and 250 μg/mL Zeocin (Invitrogen Cat. #R250-01). Cells were cryo preserved at a concentration of 2×10^7 cells/mL, in 90% Charcoal/Dextran FBS and 10% DMSO, and frozen in liquid nitrogen at a low passage number.
For the pERK assay, 2×10^7 cells/mL cryopreserved human and mouse cells were thawed rapidly in a 37° C. water bath and added to a T-225 flask containing 50 mL growth medium. The flasks were placed in a tissue culture incubator overnight (37° C., 5% CO2). The next day, cells were harvested with trypsin (Gibco Cat. #25300-054), resuspended in serum-containing growth medium and counted using a Cellometer and volume adjusted to a concentration of 0.6×10^6 cells/mL. Cells were plated into 384-well clear bottom tissue culture plates (BD Cat. #353962) at 50 μL/well, for a density of 30,000 cells/well using a MULTIDROP® and incubated for 16-18 hours (overnight) at 37° C. with 5% CO2. The next day, cells were serum starved in 30 μL of F-12 media without any serum or antibiotics for 2 hours at 37° C.
Test compounds were 3-fold, 11-point serially diluted in DMSO in a REMP assay plate (Matrix Cat. #4307) by Tecan and 5 μL was transferred into an ECHO source plate (Labcyte Cat. #LC-0200). Cells were then stimulated with 50 nL of compound dilutions using ECHO liquid handler for 7 minutes at 37° C. Compounds ranged from final assay concentrations of 33.33 μM to 0.56 nM.
The media was then dumped and cells lysed with 20 μL of 1× Lysis buffer from the AlphaScreen SureFire Phospho-ERK 1/2 Kit (Perkin Elmer Cat. #6760617M). The lysis buffer was diluted 5-fold with water before use. The plate was agitated on a shaker for 10 minutes after which 2 μL was transferred into a 384-well white proxiplate (Perkin Elmer Cat. #6008289). The SureFire assay reagent mix was prepared by mixing 60 parts Reaction Buffer, 10 parts Activation Buffer, 1 part Donor Beads, 1 part Acceptor Beads (Perkin Elmer Cat. #TGRES10K). 3.5 μL/well of this reagent mix was manually added to the proxiplate with a multichannel pipettor. Plates were spun down at 1000 rpm for 2 minutes, followed by light-protected incubation at room temperature for 2 hours. The plates were read on the Alpha-technology compatible Envision multilabel plate reader using AlphaScreen protocol according to manufacturer's specifications. The agonist effect of compounds was expressed as 100×(average sample-average blank)/(average total−average blank) where sample is the luminescence activity in the presence of test compound, blank is equal to the luminescence activity in the presence of DMSO control and the total is signal induced by 50 μM linolenic acid as reference compound. Activation data for the test compound over a range of concentrations was plotted as percentage activation of the test compound (100%=maximum response). After correcting for background, EC50 values were determined. The EC50 is defined as the concentration of test compound which produces 50% of the maximal response and was quantified using the 4 parameter logistic equation to fit the data.
The human and mouse GPR120-mediated intracellular phosphorylated ERK assays were also established using CHO-K1 cells stably transfected with the short form of human or mouse GPR120 receptor. […]
In general terms: Alpha assays give light when donor and acceptor beads are brought close together.

This passage reports EC50 results from patent US10336684B2, “Phenyl-(aza)cycloalkyl carboxylic acid GPR120 modulators” (BRISTOL-MYERS SQUIBB COMPANY, priority 2014, dated 2019).

pEC50: −log10 of the molar value.

The pEC50 is the negative decadic logarithm of the EC50, by convention in mol/L. Low readings indicate a large EC50, high ones a small EC50.

Sequence of human GPR120 (Q5NUL3 whole entry): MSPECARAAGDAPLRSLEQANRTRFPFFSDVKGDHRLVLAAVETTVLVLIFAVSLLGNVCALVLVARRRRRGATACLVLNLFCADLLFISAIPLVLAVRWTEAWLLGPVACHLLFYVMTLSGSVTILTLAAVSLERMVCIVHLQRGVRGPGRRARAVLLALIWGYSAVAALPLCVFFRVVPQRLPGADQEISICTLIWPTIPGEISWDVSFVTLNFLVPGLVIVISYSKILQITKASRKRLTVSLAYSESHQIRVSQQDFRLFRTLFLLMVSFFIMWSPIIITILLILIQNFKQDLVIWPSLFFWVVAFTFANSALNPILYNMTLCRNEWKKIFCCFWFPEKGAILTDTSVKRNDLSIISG

`O=C(O)[C@H]1C[C@@H]1CCc1ccc(N2CCC[C@@H](Oc3ccccc3)C2)cc1` [Example 48]: the pEC50 was 5.49. With `O=C(O)[C@H]1C[C@@H]1CCc1ccc(N2CCC[C@H](Oc3ccccc3)C2)cc1` [Example 49] the figure was 5.88; with `O=C(O)[C@@H]1C[C@H]1CCc1ccc(N2CCC[C@@H](Oc3ccccc3)C2)cc1` [Example 50], 6.39; with `O=C(O)[C@@H]1C[C@H]1CCc1ccc(N2CCC[C@H](Oc3ccccc3)C2)cc1` [Example 51], 5.72. On to `O=C(O)[C@@H]1C[C@H]1CCc1ccc(N2CCC[C@H](Oc3ccc(F)cc3)C2)cc1` [Example 52], for which the pEC50 is 5.81. In the case of `O=C(O)[C@H]1C[C@@H]1CCc1ccc(N2CCC[C@@H](c3ccccc3)C2)cc1` [Example 53] it was 5.44. In turn, `O=C(O)[C@H]1C[C@@H]1CCc1ccc(N2CCC[C@H](c3ccccc3)C2)cc1` [Example 54] had a negative-log EC50 (pEC50) of 5.87. With `O=C(O)[C@@H]1C[C@H]1CCc1ccc(N2CCC[C@@H](c3ccccc3)C2)cc1` [Example 55] the figure was 5.20.

In turn, `O=C(O)[C@@H]1C[C@H]1CCc1ccc(N2CCC[C@H](c3ccccc3)C2)cc1` [Example 56] had a negative-log EC50 (pEC50) of 5.32. With `O=C(O)COCCc1ccc(N2CCCC(c3ccccc3)C2)cc1` (stereo not shown) [Example 57], the negative-log EC50 (pEC50) is 5.65. In the case of `O=C(O)CCCCc1ccc(N2CCC(Oc3ccccc3)CC2)cc1` [Example 58] it was 5.39. In turn, `O=C(O)COCCc1ccc(N2CCC(Oc3ccccc3)C2)cc1` (stereo not shown) [Example 59] gave a pEC50 of 5.28. In the case of `O=C(O)CCCCc1ccc(N2CC[C@H](Oc3ccccc3)C2)cc1` [Example 60] it was 6.66. For `O=C(O)CCCCc1ccc(N2CC[C@@H](Oc3ccccc3)C2)cc1` [Example 61], the pEC50 was 5.47. In the case of `O=C(O)[C@@H]1C[C@H]1CCc1ccc(N2CCCC(Oc3ccccc3)CC2)cc1` (stereo partly shown) [Example 62] it was 4.99; in that of `O=C(O)COCCc1ccc(N2CC(Oc3ccccc3)C2)cc1` [Example 63], 5.36.
